Earlier results, collected in US4496540A, “Therapeutic compounds” (Biomeasure, Inc., priority 1982, dated 1985).

System: enkephalinase

inhibition of enkephalinase (known inhibitors, Llorens et al. (1981)): inhibited
Compound: O=C(O)CNC(=O)C(CS)Cc1ccccc1 (racemic) [Thiorphan, (DL-3-mercapto-2-benzylpropanoyl) glycine]
protection of the enkephalins from the action of enkephalinase in vitro (in vitro, Roques et al. (1980)): protects the enkephalins from the action of enkephalinase in vitro in nanomolar concentration
